The text below walks through data of patent US20160244405A1, “COMPOSITIONS AND METHODS FOR THE TREATMENT OF HYPERGLYCEMIA AND METABOLIC SYNDROME” (priority 2015, published 2016).

SMILES strings stand for the structures. Converted amounts (≈) assume the structure as drawn. Where two headings read alike, the source gives them in different places. Bounds are passed on as bounds.

As a reminder, the solubility is how much of the substance goes into solution per volume.

This data set can be described thus: Water solubility by adding distilled water in portions until a clear solution. Format: physicochemical. The following applies: thermodynamic from solid. On the procedure:
The Solubility of the Compound of amino(3,3-dimethylguanidino)methaniminium (S)-2-((5Z,8Z,11Z,14Z,17Z)-icosa-5,8,11,14,17-pentaenamido)-4-methylpentanoate, Example-1 in Water was Compared with that of Eicosapentaenoic Acid (EPA) Measurement of the water solubility of the test compound was accomplished by using methods well known to those skilled in the art. Specifically, to a weighed amount of the test compounds of Example-1 and EPA were taken in separate vials; distilled water was added in small portions until a clear solution was obtained. The water solubility is calculated by dividing the weight of salt, in mg, by the volume of the solution, in mL. The water solubility of the compounds of example-1 compared to EPA alone were as follows: […]

`CC/C=C\C/C=C\C/C=C\C/C=C\C/C=C\CCCC(=O)N[C@@H](CC(C)C)C(=O)O` [Example-1, amino(3,3-dimethylguanidino)methaniminium (S)-2-((5Z,8Z,11Z,14Z,17Z)-icosa-5,8,11,14,17-pentaenamido)-4-methylpentanoate] returned a solubility (water) of 118 mg/mL (≈ 284 mM).

As to `CC/C=C\C/C=C\C/C=C\C/C=C\C/C=C\CCCC(=O)O` [EPA, eicosapentaenoic acid], for the setting “distilled water, weight of salt in mg divided by volume of solution in mL, read-out: water solubility”, the solubility is less than 0.3 mg/mL.
